Assay results reported in patent US20230278972A1, “SUBSTITUTED HALOALKYL SULFONANILIDE HERBICIDES” (FMC Corporation, priority 2020, published 2023).

Legend:
Type in all cases: in vivo
[1] = test system: Foxtail, Giant (giant foxtail, Setaria faberi); assay: Test A postemergence, Foxtail, Giant; conditions: Postemergence, 0 to 100 scale (0 no effect, 100 complete control)
Summary of the method: (§1)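 Formulated with a surfactant in a non-phytotoxic solvent, compounds are applied to loam–sand pots, either to bare soil immediately after seeding (preemergence) or to seedlings of 2 to 10 cm bearing one to two leaves (postemergence).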

[2] = test system: pigweed (Amaranthus retroflexus); assay: Test A postemergence, pigweed; conditions: Postemergence, 0 to 100 scale (0 no effect, 100 complete control)
Summary of the method: as §1

[3] = test system: kochia (Bassia scoparia); assay: Test A preemergence, kochia; conditions: Preemergence; for Kochia plant response rating: 125 g ai/ha, visual injury on 0 to 100 scale (0 no effect, 100 complete control), approximately 10 days; for Plant response rating, Kochia: 500 g ai/ha, 0 to 100 scale (0 no effect, 100 complete control)
Summary of the method: as §1

[4] = test system: barnyardgrass (Echinochloa crus-galli); assay: Test A postemergence, barnyardgrass; conditions: Postemergence, 0 to 100 scale (0 no effect, 100 complete control)
Summary of the method: (§2)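 Pots: loam soil/sand blend. Pre: directed soil spray at planting. Post: plants 2–10 cm, 1–2 leaf stage. Formulation: non-phytotoxic solvent + surfactant.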

[5] = test system: blackgrass (Alopecurus myosuroides); assay: Test A postemergence, blackgrass; conditions: Postemergence, 0 to 100 scale (0 no effect, 100 complete control)
Summary of the method: as §1

[6] = test system: galium (catchweed bedstraw, Galium aparine); assay: Test A postemergence, galium; conditions: Postemergence, 0 to 100 scale (0 no effect, 100 complete control)
Summary of the method: as §2

[7] = test system: barnyardgrass (Echinochloa crus-galli); assay: Test A preemergence, barnyardgrass; conditions: Preemergence; for Barnyardgrass plant response rating: 125 g ai/ha, visual injury on 0 to 100 scale (0 no effect, 100 complete control), approximately 10 days; for Plant response rating, Barnyardgrass: 500 g ai/ha, 0 to 100 scale (0 no effect, 100 complete control)
Summary of the method: as §1

[8] = test system: corn (Zea mays); assay: Test A postemergence, corn; conditions: Postemergence, 0 to 100 scale (0 no effect, 100 complete control)
Summary of the method: as §1

[9] = test system: wheat (Triticum aestivum); assay: Test A postemergence, wheat; conditions: Postemergence, 0 to 100 scale (0 no effect, 100 complete control)
Summary of the method: as §2

[10] = test system: ragweed (common ragweed, Ambrosia artemisiifolia); assay: Test A postemergence, ragweed; conditions: Postemergence, 0 to 100 scale (0 no effect, 100 complete control)
Summary of the method: as §1

[11] = test system: Ryegrass, Italian (Italian ryegrass, Lolium multiflorum); assay: Test A postemergence, Ryegrass, Italian; conditions: Postemergence, 0 to 100 scale (0 no effect, 100 complete control)
Summary of the method: as §1

[12] = test system: pigweed (Amaranthus retroflexus); assay: Test A preemergence, pigweed; conditions: for Pigweed plant response rating: 125 g ai/ha, visual injury on 0 to 100 scale (0 no effect, 100 complete control), approximately 10 days; for Plant response rating, Pigweed: 500 g ai/ha, 0 to 100 scale (0 no effect, 100 complete control)
Summary of the method: as §2

[13] = test system: Ryegrass, Italian (Italian ryegrass, Lolium multiflorum); assay: Test A preemergence, Ryegrass, Italian; conditions: Preemergence; for Ryegrass, Italian plant response rating: 125 g ai/ha, visual injury on 0 to 100 scale (0 no effect, 100 complete control), approximately 10 days; for Plant response rating, Ryegrass, Italian: 500 g ai/ha, 0 to 100 scale (0 no effect, 100 complete control)
Summary of the method: as §1

[14] = test system: kochia (Bassia scoparia); assay: Test A postemergence, kochia; conditions: Postemergence, 0 to 100 scale (0 no effect, 100 complete control)
Summary of the method: as §1

[15] = test system: ragweed (common ragweed, Ambrosia artemisiifolia); assay: Test A preemergence, ragweed; conditions: Preemergence; for Ragweed plant response rating: 125 g ai/ha, visual injury on 0 to 100 scale (0 no effect, 100 complete control), approximately 10 days; for Plant response rating, Ragweed: 500 g ai/ha, 0 to 100 scale (0 no effect, 100 complete control)
Summary of the method: as §1

[16] = test system: Foxtail, Giant (giant foxtail, Setaria faberi); assay: Test A preemergence, Foxtail, Giant; conditions: Preemergence; for Foxtail, Giant plant response rating: 125 g ai/ha, visual injury on 0 to 100 scale (0 no effect, 100 complete control), approximately 10 days; for Plant response rating, Foxtail, Giant: 500 g ai/ha, 0 to 100 scale (0 no effect, 100 complete control)
Summary of the method: as §1

[17] = 125 g ai/ha, visual injury approx. 10 days
[18] = 500 g ai/ha, visual injury, approx. 10 days
[19] = 500 g ai/ha, visual injury vs untreated controls after approx. 10 days

Compound	Plant response rating, Foxtail, Giant [1, 17]	Plant response rating, Pigweed [2, 17]	Kochia plant response rating [3]	Plant response rating, Kochia [3]	Plant response rating, Barnyardgrass [4, 17]	Plant response rating, Blackgrass [5, 17]	Plant response rating, Galium [6, 17]	Barnyardgrass plant response rating [7]	Plant response rating, Barnyardgrass [7]	Plant response rating, Corn [8, 17]	Plant response rating, Wheat [9, 17]	Plant response rating, Ragweed [10, 17]	Plant response rating, Ryegrass, Italian [11, 17]	Pigweed plant response rating [12]	Plant response rating, Pigweed [12]	Ryegrass, Italian plant response rating [13]	Plant response rating, Ryegrass, Italian [13]	Plant response rating, Kochia [14, 17]	Ragweed plant response rating [15]	Plant response rating, Ragweed [15]	further results
CCn1c(=O)c(-c2cc(NS(=O)(=O)C(F)(F)F)c(C)cc2C)cn(C)c1=O [Compound 37]	90	50	80	90	90	80	90	90	90	20	80	30	90	50	90	100	100	60	40	80	Plant response rating, Foxtail, Giant [1, 18]: 90; Plant response rating, Pigweed [2, 18]: 50; Plant response rating, Barnyardgrass [4, 18]: 90; Plant response rating, Blackgrass [5, 18]: 90; Plant response rating, Galium [6, 18]: 100; Plant response rating, Corn [8, 18]: 80; Plant response rating, Wheat [9, 18]: 80; Plant response rating, Ragweed [10, 18]: 70; Plant response rating, Ryegrass, Italian [11, 18]: 90; Plant response rating, Kochia [14, 18]: 70; Foxtail, Giant plant response rating [16]: 100; Plant response rating, Foxtail, Giant [16]: 100
Cc1cc(C)c(N(S(=O)(=O)C(F)(F)F)S(=O)(=O)C(F)(F)F)cc1-c1cc(C(F)(F)F)nn(C)c1=O [Compound 61]	0	20	50	90	20	0	50	100	100	20	40	0	40	50	80	70	100	40	0	0	Foxtail, Giant plant response rating [1, 19]: 70; Pigweed plant response rating [2, 19]: 80; Barnyardgrass plant response rating [4, 19]: 80; Blackgrass plant response rating [5, 19]: 30; Galium plant response rating [6, 19]: 60; Corn plant response rating [8, 19]: 10; Wheat plant response rating [9, 19]: 70; Ragweed plant response rating [10, 19]: 30; Ryegrass, Italian plant response rating [11, 19]: 80; Kochia plant response rating [14, 19]: 60; Foxtail, Giant plant response rating [16]: 100; Plant response rating, Foxtail, Giant [16]: 100
Cc1cc(Cl)c(NS(=O)(=O)C(F)(F)F)cc1C(=O)N1CCC(C#N)CC1 [Compound 17]	90	60	70	90	30	0	80	100	100	10	70	80	0	90	100	80	100	60	80	80	Plant response rating, Foxtail, Giant [1, 18]: 90; Plant response rating, Pigweed [2, 18]: 70; Plant response rating, Barnyardgrass [4, 18]: 90; Plant response rating, Blackgrass [5, 18]: 30; Plant response rating, Galium [6, 18]: 90; Plant response rating, Corn [8, 18]: 20; Plant response rating, Wheat [9, 18]: 60; Plant response rating, Ragweed [10, 18]: 90; Plant response rating, Ryegrass, Italian [11, 18]: 70; Plant response rating, Kochia [14, 18]: 70; Foxtail, Giant plant response rating [16]: 100; Plant response rating, Foxtail, Giant [16]: 100
